Test results: ChEMBL document CHEMBL6121041, “Design and synthesis of isatin derivative payloaded peptide-drug conjugate as tubulin inhibitor against colorectal cancer” (Eur J Med Chem, 2025)
Activity calls are given as the source filed them. The rule behind the calls is not given here. Residues, ends and D or L forms follow the SMILES beside them. *: point of attachment. X1 = COc1ccc(CN2C(=O)C(=O)c3cc(-c4ccc(OC(=O)CCC(=O)*)cc4)ccc32)cc1

Assays:
[1] = Cytotoxicity against HUVEC cells assessed as reduction in cell viability incubated for 48 hrs by MTT assay; format: toxicity, cell-based; conditions: human
HCT-116 [2] = assay: Induction of apoptosis in human HCT-116 cells assessed as morphological changes at 0.4 to 0.8 microM measured after 48 hrs by microscopic analysis; format: functional, cell-based; conditions: dose 0.4-0.8 µM
HCT-116 [3] = assay: Inhibition of wound closure in human HCT-116 cells at 0.4 uM measured after 48 hrs by wound healing assay; format: functional, cell-based
HCT-116 [4] = assay: Inhibition of colony formation in human HCT-116 cells at 0.4 to 0.8 uM measured after 10 days by crystal violet staining based inverted microscopic analysis; format: functional, cell-based; conditions: dose 0.4-0.8 µM, time 10.0 day
HCT-116 [5] = assay: Induction of apoptosis in human HCT-116 cells at 0.4 to 0.8 uM incubated for 24 hrs by Annexin V-FITC/PI staining based flow cytometric analysis; format: functional, cell-based; conditions: dose 0.4-0.8 µM
HCT-116 [6] = assay: Induction of apoptosis in human HCT-116 cells assessed as upregulation of Bax protein at 0.8 uM measured after 24 hrs by Western blot analysis; format: functional, cell-based
HCT-116 [7] = assay: Cell cycle arrest in human HCT-116 cells assessed as increase in p53 expression at 0.8 uM incubated for 24 hrs by Western blot analysis; format: functional, cell-based
HCT-116 [8] = assay: Induction of apoptosis in human HCT-116 cells assessed as increase in caspase-3 activation level at 0.8 uM measured after 24 hrs by Western blot analysis; format: functional, cell-based
HCT-116 [9] = assay: Inhibition of beta-tubulin expression in human HCT-116 cells at 0.8 uM incubated for 24 hrs by Western blot analysis; format: functional, cell-based
HCT-116 [10] = assay: Induction of apoptosis in human HCT-116 cells assessed as downregulation of Bcl-2 protein at 0.8 uM measured after 24 hrs by Western blot analysis; format: functional, cell-based
HCT-116 [11] = assay: Induction of apoptosis in human HCT-116 cells assessed as increase in PARP activation level at 0.8 uM measured after 24 hrs by Western blot analysis; format: functional, cell-based
HCT-116 [12] = assay: Antiproliferative activity against human HCT-116 cells assessed as reduction in cell viability incubated for 48 hrs by MTT assay; format: functional, cell-based; conditions: HCT-116, 48 h
HCT-116 [13] = assay: Induction of apoptosis in human HCT-116 cells assessed as cell fragmentation at 0.4 to 0.8 microM measured after 24 hrs by microscopic analysis; format: functional, cell-based; conditions: dose 0.4-0.8 µM
HCT-116 [14] = assay: Induction of apoptosis in human HCT-116 cells assessed as morphological changes at 0.4 to 0.8 microM measured after 24 hrs by microscopic analysis; format: functional, cell-based; conditions: dose 0.4-0.8 µM
[15] = Toxicity in SPF-grade Balb/c nude mouse xenografted with human HCT-116 cells assessed as average body weight at 33.86 to 45.17 mg/kg, ip measured after 10 days; format: organism-based; conditions: in vivo, 240 h, dose 33.86-45.17 mg/kg, time 10 day
HCT-116 [16] = assay: Cell cycle arrest in human HCT-116 cells assessed as decrease in CDK1 expression at 0.8 uM incubated for 24 hrs by Western blot analysis; format: functional, cell-based
HCT-116 [17] = assay: Cell cycle arrest in human HCT-116 cells assessed as increase in cyclin B1 expression at 0.8 uM incubated for 24 hrs by Western blot analysis; format: functional, cell-based
HCT-116 [18] = assay: Cell cycle arrest in human HCT-116 cells assessed as accumulation of cells at G2/M phase at 0.4 to 0.8 uM incubated for 24 hrs by PI staining based flow cytometric analysis; format: functional; conditions: dose 0.4-0.8 µM
HCT-116 [19] = assay: Antitumor activity against human HCT-116 cells xenografted in SPF-grade Balb/c nude mouse model assessed as reduction in tumor size at 33.86 to 45.17 mg/kg, ip administered daily for 11 days by photographic analysis; format: functional, organism-based; conditions: dose 33.86-45.17 mg/kg, time 11.0 day
HCT-116 [20] = assay: Antitumor activity against human HCT-116 cells xenografted in SPF-grade Balb/c nude mouse model assessed as inhibition of tumor cell growth at 33.86 to 45.17 mg/kg, ip administered daily for 11 days by H and E staining based analysis; format: functional, organism-based; conditions: dose 33.86-45.17 mg/kg, time 11.0 day
HCT-116 [21] = assay: Antitumor activity against human HCT-116 cells xenografted in SPF-grade Balb/c nude mouse model assessed as tumor growth inhibition at 33.86 mg/kg, ip administered daily for 11 days relative to control; format: functional; conditions: HCT-116, 264 h, time 11 day, read-out: TGI
HCT-116 [22] = assay: Cell cycle arrest in human HCT-116 cells assessed as increase in p21 expression at 0.8 uM incubated for 24 hrs by Western blot analysis; format: functional, cell-based
786-0 = assay: Antiproliferative activity against human 786-0 cells assessed as reduction in cell viability incubated for 48 hrs by MTT assay; format: functional, cell-based; conditions: 786-0, 48 h
[23] = Toxicity in SPF-grade Balb/c nude mouse xenografted with human HCT-116 cells assessed as average body weight at 12 mg/kg, ip measured after 10 days; format: organism-based; conditions: in vivo, 240 h, time 10 day
HCT-116 [24] = assay: Antitumor activity against human HCT-116 cells xenografted in SPF-grade Balb/c nude mouse model assessed as reduction in tumor size at 12 mg/kg, ip administered daily for 11 days by photographic analysis; format: functional, organism-based; conditions: time 11.0 day
HCT-116 [25] = assay: Induction of apoptosis in human HCT-116 cells assessed as downregulation of Bcl-2 protein at 0.2 to 0.8 uM measured within 24 hrs by Western blot analysis; format: functional, cell-based; conditions: dose 0.2-0.8 µM
HCC827 = assay: Antiproliferative activity against human HCC827 cells assessed as reduction in cell viability incubated for 48 hrs by MTT assay; format: functional, cell-based; conditions: HCC827, 48 h
HepG2 = assay: Antiproliferative activity against human HepG2 cells assessed as reduction in cell viability incubated for 48 hrs by MTT assay; format: functional, cell-based; conditions: HepG2, 48 h
HCT-116 [26] = assay: Inhibition of beta-tubulin expression in human HCT-116 cells at 0.2 to 0.8 uM incubated for 24 hrs by Western blot analysis; format: functional, cell-based; conditions: dose 0.2-0.8 µM
HCT-116 [27] = assay: Cell cycle arrest in human HCT-116 cells assessed as increase in p53 expression at 0.2 to 0.8 uM incubated for 24 hrs by Western blot analysis; format: functional, cell-based; conditions: dose 0.2-0.8 µM
HCT-116 [28] = assay: Antitumor activity against human HCT-116 cells xenografted in SPF-grade Balb/c nude mouse model assessed as inhibition of tumor cell growth at 12 mg/kg, ip administered daily for 11 days by H and E staining based analysis; format: functional, organism-based; conditions: time 11.0 day
HCT-116 [29] = assay: Antitumor activity against human HCT-116 cells xenografted in SPF-grade Balb/c nude mouse model assessed as tumor growth inhibition at 12 mg/kg, ip administered daily for 11 days relative to control; format: functional; conditions: HCT-116, 264 h, time 11 day, read-out: TGI
[30] = Cytotoxicity against HK-2 cells assessed as reduction in cell viability incubated for 48 hrs by MTT assay; format: toxicity, cell-based; conditions: human
K562 = assay: Antiproliferative activity against human K562 cells assessed as reduction in cell viability incubated for 48 hrs by MTT assay; format: functional, cell-based; conditions: K562, 48 h
HCT-116 [31] = assay: Induction of apoptosis in human HCT-116 cells assessed as upregulation of Bax protein at 0.2 to 0.8 uM measured within 24 hrs by Western blot analysis; format: functional, cell-based; conditions: dose 0.2-0.8 µM
HCT-116 [32] = assay: Cell cycle arrest in human HCT-116 cells assessed as increase in p21 expression at 0.2 to 0.8 uM incubated for 24 hrs by Western blot analysis; format: functional, cell-based; conditions: dose 0.2-0.8 µM
HCT-116 [33] = assay: Induction of apoptosis in human HCT-116 cells assessed as increase in caspase-3 cleavage level at 0.2 to 0.8 uM incubated for 24 hrs by Western blot analysis; format: functional, cell-based; conditions: dose 0.2-0.8 µM
MGC-803 = assay: Antiproliferative activity against human MGC-803 cells assessed as reduction in cell viability incubated for 48 hrs by MTT assay; format: functional, cell-based; conditions: MGC-803, 48 h
HCT-116 [34] = assay: Induction of apoptosis in human HCT-116 cells assessed as increase in PARP cleavage at 0.2 to 0.8 uM incubated for 24 hrs by Western blot analysis; format: functional, cell-based; conditions: dose 0.2-0.8 µM
HCT-116 [35] = assay: Antitumor activity against human HCT-116 cells xenografted in SPF-grade Balb/c nude mouse model assessed as tumor growth inhibition at 45.17 mg/kg, ip administered daily for 11 days relative to control; format: functional; conditions: HCT-116, 264 h, time 11 day, read-out: TGI
HCT-116 [36] = assay: Cell cycle arrest in human HCT-116 cells assessed as accumulation of cells at G2/M phase by measuring increase in cyclin B1 expression at 0.2 to 0.8 uM incubated for 24 hrs by Western blot analysis; format: functional, cell-based; conditions: dose 0.2-0.8 µM
HCT-116 [37] = assay: Cell cycle arrest in human HCT-116 cells assessed as accumulation of cells at G2/M phase by measuring decrease in CDK1 expression at 0.2 to 0.8 uM incubated for 24 hrs by Western blot analysis; format: functional, cell-based; conditions: dose 0.2-0.8 µM

Row | SMILES | IC50 at 48 h [1] | Activity (HCT-116 [2]) | inhibition (HCT-116 [3]) | inhibition (HCT-116 [4]) | Activity (HCT-116 [5]) | Activity (HCT-116 [6]) | Activity (HCT-116 [7]) | Activity (HCT-116 [8]) | inhibition (HCT-116 [9]) | Activity (HCT-116 [10]) | Activity (HCT-116 [11]) | IC50 (HCT-116 [12]) | Activity (HCT-116 [13]) | Activity (HCT-116 [14]) | Activity (HCT-116 [16]) | Activity (HCT-116 [17]) | Activity (HCT-116 [18]) | Activity (HCT-116 [22]) | IC50 (786-0) | IC50 (HCC827) | further results
1 | COc1ccc(CN2C(=O)C(=O)c3cc(-c4ccc(OC(=O)CCC(=O)NCCCC[C@H](NC(C)=O)C(=O)N5CCC[C@H]5C(=O)N[C@@H](CO)C(=O)N[C@@H](CO)C(=O)N5CCC[C@H]5C(=O)N5CCC[C@H]5C(=O)N[C@@H](CCC(=O)O)C(=O)N[C@@H](CCC(=O)O)C(N)=O)cc4)ccc32)cc1 (Ac-K(X1)PSSPPEE-NH2) | 43 µM | Active; More Evident Apoptotic State Observed | Active | Active | Active | Active | Active | Active | Active | Active | Active | 0.23 µM | Active | Active | Active | Active | Active | Active | – | – | Activity [15]: ~ 10 g; Activity (HCT-116 [19]): Active; Activity (HCT-116 [20]): Active; inhibition in vivo at 33.86 mg/kg (HCT-116 [21]): 47%
2 | COc1ccc(CN2C(=O)C(=O)c3cc(-c4ccc(O)cc4)ccc32)cc1 | 18.1 µM | Active; More Evident Apoptotic State Observed | Active | Active | Active | Active | Active | Active | Active | Active | Active | 0.33 µM | Active | Active | Active | Active | Active | Active | 26.6 µM | 10.1 µM | Activity [23]: ~ 10 g; Activity (HCT-116 [24]): Active; Activity (HCT-116 [25]): Active; Activation Of Intrinsic Apoptotic Pathway Observed; IC50 (HepG2): > 100 µM; inhibition (HCT-116 [26]): Active; Activity (HCT-116 [27]): Active; Activation Of P53-Medisted Signaling Observed; Activity (HCT-116 [28]): Active; inhibition in vivo at 12 mg/kg (HCT-116 [29]): 49%; IC50 at 48 h [30]: 13.9 µM; IC50 (K562): 0.8 µM; Activity (HCT-116 [31]): Active; Activation Of Intrinsic Apoptotic Pathway Observed; Activity (HCT-116 [32]): Active; Activation Of P53-Medisted Signaling Observed; Activity (HCT-116 [33]): Active; IC50 (MGC-803): 20.6 µM; Activity (HCT-116 [34]): Active; inhibition in vivo at 45.17 mg/kg (HCT-116 [35]): 61%; Activity (HCT-116 [36]): Active; Activity (HCT-116 [37]): Active
3 | COc1ccc(CN2C(=O)C(=O)c3cc(-c4ccc(CBr)cc4)ccc32)cc1 | 16 µM | – | – | – | – | – | – | – | – | – | – | 0.349 µM | – | – | – | – | – | – | 33.3 µM | 24.2 µM | IC50 (HepG2): > 100 µM; IC50 at 48 h [30]: 1.99 µM; IC50 (K562): 0.77 µM; IC50 (MGC-803): 27 µM
